Experiment: siRNA remaining in water (supernatant OD260) after precipitation with cationic lipid
Type: physicochemical
Set-up: unit not given here
Description: A nucleic acid/cationic lipid salt was prepared by the following method. Two mg of the cationic lipid was dissolved in 0.1 mL of chloroform in a clean, dry borosilicate clear glass vial and the chloroform was evaporated off by blowing nitrogen gas into the vial and any remaining trace amount of chloroform was removed by drying in vacuo in a vacuum chamber. The vial was removed from the vacuum chamber and 0.1 mL of ethanol was added. The vial was sealed with TEFLON®-lined cap and tightly wrapped with a sealing tape. The vial was vortexed or/and sonicated to dissolve the cationic lipid.
The solution of the cationic lipid in ethanol was added to an aqueous solution containing 1 mg siRNA. The addition of the cationic lipid to the siRNA solution caused immediate aggregation forming a water-insoluble cationic lipid/nucleic acid salt comprised of the cationic lipid and siRNA.
The water-insoluble cationic lipid/nucleic acid salt in a tube was then centrifuged in an Eppendorf microcentrifuge at maximum speed for 15 minutes to form a pellet. The supernatant after each centrifugation were collected and the amount siRNA in the supernatant was measured with OD260.
Table 2 is the summary of measurement of the ratio of siRNA/lipid which rendering siRNA insoluble in water.

| Structure (SMILES) | siRNA remaining in water (siRNA/lipids ratio 0.5) | siRNA remaining in water (siRNA/lipids ratio 0.75) | siRNA remaining in water (siRNA/lipids ratio 1) | siRNA remaining in water (siRNA/lipids ratio 1.5) | siRNA remaining in water (siRNA/lipids ratio 2) |
| --- | --- | --- | --- | --- | --- |
| CC(C)CCC[C@@H](C)[C@H]1CC[C@H]2[C@@H]3CC=C4C[C@@H](OC(=O)NCCN(C)C)CC[C@]4(C)[C@H]3CC[C@]12C.Cl [DC-Chol, cholesteryl 3β-N-(dimethylaminoethyl)carbamate hydrochloride] | 72 | 63 | 57 | 35 | 13 |
| CCCCCCCC/C=C\CCCCCCCC(=O)OCC(C[N+](C)(C)C)OC(=O)CCCCCCC/C=C\CCCCCCCC.[Cl-] (stereo not drawn) [DOTAP, N-(l-(2,3-dioleoyloxy)propyl)-N,N,N-trimethylammonium chloride] | 63 | 55 | 45 | 28 | 10 |
| CCCCCCCC/C=C\CCCCCCCCOCC(C[N+](C)(C)C)OCCCCCCCC/C=C\CCCCCCCC.[Cl-] (stereo not drawn) [DOTMA, N-[1-(2,3-dioleyloxy)propyl]-N,N,N-trimethylammonium chloride] | 61 | 57 | 46 | 29 | 6 |

From patent US9080186B2, “Compositions comprising cationic amphiphiles and colipids for delivering therapeutic molecules” (Agave Pharma, Incorporated, priority 2009, dated 2015)
